Measurements from PubChem BioAssay (NCI).
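Grown in 96-well plates, cells were treated for 48 hours with each compound at five concentrations. Insufficient inhibition: endpoint recorded as highest concentration tested. TGI: total growth inhibition.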

Tests used:
Test in all cases: DTP human tumour cell line panel, 48 h
UACC-257 melanoma = tested on: UACC-257 melanoma
MALME-3M melanoma = tested on: MALME-3M melanoma
MOLT-4 leukemia = tested on: MOLT-4 leukemia
LOX IMVI melanoma = tested on: LOX IMVI melanoma
NCI-H460 lung = tested on: NCI-H460 lung
IGROV1 ovarian = tested on: IGROV1 ovarian
T-47D breast = tested on: T-47D breast
RXF 393 renal = tested on: RXF 393 renal
NCI-H23 lung = tested on: NCI-H23 lung
COLO 205 colon = tested on: COLO 205 colon

| SMILES | TGI (UACC-257 melanoma) [µM] | TGI (MALME-3M melanoma) [µM] | TGI (MOLT-4 leukemia) [µM] | TGI (LOX IMVI melanoma) [µM] | TGI (NCI-H460 lung) [µM] | TGI (IGROV1 ovarian) [µM] | TGI (T-47D breast) [µM] | TGI (RXF 393 renal) [µM] | TGI (NCI-H23 lung) [µM] | TGI (COLO 205 colon) [µM] |
| --- | --- | --- | --- | --- | --- | --- | --- | --- | --- | --- |
| COc1ccc(C2Oc3c(cccc3OC)C=C2[N+](=O)[O-])cc1 (stereo not given) | 19 | 10 | 6.86 | 2.81 | 4.15 | 9.3 | 27.7 | 2.7 | 12.4 | 6.95 |
| CC(C)(C)OC(=O)N1C(=O)OC[C@@H]2C=C[C@@H]21 | > 100 | > 100 | > 100 | > 100 | > 100 | > 100 | > 100 | > 100 | > 100 | > 100 |
| Clc1cccc(Cl)c1C1SCc2nc3ncccc3n21 (stereo not given) | > 100 | > 100 | > 100 | > 100 | > 100 | > 100 | > 100 | > 100 | > 100 | > 100 |
| CN(CCNC(=O)c1cc(-c2ccccc2)nc2ccccc12)CCNC(=O)c1cc(-c2ccccc2)nc2ccccc12 | 10.2 | 4.09 | > 100 | 16 | > 100 | > 100 | > 100 | > 57.7 | > 100 | 4.71 |
| COc1cc(C2c3cc4c(cc3OC(O)C2C)OCO4)cc(OC)c1O (stereo not given) | > 100 | 29.4 | > 100 | > 100 | > 70.5 | > 100 | > 68.6 | > 43 | > 100 | 45.8 |
| CCC(CCCCC1CC[C@H]2CC(=O)C[C@@H]12)OC (stereo not given in full) | > 100 | > 100 | > 100 | > 100 | > 100 | > 100 | > 100 | > 100 | > 100 | > 100 |
| O=C1C(c2c(O)[nH]c3ccc(S(=O)(=O)N(CCO)CCO)cc23)=Nc2ccccc21 | > 100 | > 100 | > 100 | > 100 | > 100 | > 100 | 20.3 | 6.53 | > 100 | > 100 |
| CC[C@]12C=CCN3CCC4(c5cc(N=Nc6ccc([N+](=O)[O-])cc6)c(OC)cc5N(C)[C@H]4[C@@](O)(C(=O)OC)[C@@H]1OC(C)=O)[C@@H]32 (stereo not given in full) | 56.5 | 36.9 | 13.1 | 47.3 | > 100 | 33.2 | > 100 | 35.6 | 32.4 | 42.5 |
| CC1(C)OC([C@H](O)CO)C([C@H]2NCCS2)O1 (stereo not given in full) | > 100 | > 100 | > 100 | > 100 | > 100 | > 100 | > 100 | > 100 | > 100 | > 100 |
| COc1cc(CNC(=O)CCCCCCCCCCSSCCCCCCCCCCC(=O)NCc2ccc(O)c(OC)c2)ccc1O | > 10 | > 10 | > 10 | > 10 | > 10 | > 10 | > 10 | > 10 | > 10 | > 10 |
| Nc1nc(Cl)nc2c1ncn2C1CCC(CO)O1 (stereo not given) | > 100 | > 100 | > 100 | > 100 | > 100 | > 100 | > 100 | > 100 | > 100 | > 100 |
| Cc1cc(-c2ccc(Cl)cc2)c(C#N)c(=S)n1C1OC(CO)C(O)C(O)C1O (stereo not given) | > 100 | > 100 | > 100 | > 100 | > 100 | > 100 | > 100 | > 100 | > 100 | > 100 |
| CCOC(=O)c1nc2ccc(C(F)(F)F)cc2nc1Nc1ccc(OC)c(OC)c1 | > 100 | > 100 | > 100 | > 100 | > 100 | > 100 | > 100 | > 100 | > 100 | > 100 |
| Nc1nc(Cl)cc(NCC2(CO)CCC(OCc3ccccc3)C2)n1 (stereo not given) | 45.1 | 97.2 | 34.3 | 46.4 | > 100 | > 100 | 52.7 | > 100 | 43.8 | 62.7 |
| CC(C)(Cc1ccccc1)Cc1cc(O)ccc1O | 29.5 | 33.2 | 49.5 | 26.8 | 37.4 | > 100 | 23.1 | 28.9 | 38.7 | 39.1 |
| CN(C)N1C(=O)CC2(CCN(CCCC(=O)c3ccc(F)cc3)CC2)C1=O | > 100 | > 100 | > 100 | > 100 | > 100 | > 100 | > 100 | > 100 | > 100 | > 100 |
| Cc1ccc(OCCn2cc(Nc3ccccc3)c(=O)[nH]c2=O)cc1 | > 100 | > 100 | > 100 | > 100 | > 100 | > 100 | > 100 | > 100 | > 100 | > 100 |
| [O-][n+]1onc2c1-c1nonc1CC2 | 59.4 | 54 | > 100 | 79 | > 100 | > 100 | > 100 | 69.5 | 61.4 | > 100 |
| CO/N=C/c1c(-c2ccc(Cl)cc2)c(/C=N/OC)n2c1sc1ccccc12 | > 100 | > 100 | > 100 | > 100 | > 100 | > 100 | > 100 | > 100 | > 100 | > 100 |
| CC1=C/C(=C(/c2ccc(O)c(C)c2)c2ccccc2C(=O)O)C=CC1=O | 35.8 | 46.8 | 43.1 | 35.9 | > 100 | 34.1 | 72.1 | 33.8 | 36.6 | 34.3 |
